Experimental data taken from ChEMBL document CHEMBL1201862, “PubChem BioAssay data set” (2004).
Each block holds one compound with its values, some of them ahead of it. Activity calls are given as the source filed them.

Legend:
NS3 = NS3 (Hepatitis C virus, UniProt A3EZJ3); test: PubChem AID 2173; design: species or system Hepacivirus hominis
[1] = HEK-293T viability loss after treatment – luminescence, T-cell screen hits, cytotoxicity control for TCR NF-kB inhibitor project, dose response (AID 489026); assay type: functional, cell-based;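 note: cells exposed to compound about 14 hours before the viability readout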
[2] = target: T1, Heat shock factor protein 1 (Mus musculus, UniProt P38532); test: decrease of HSF1-responsive luciferase luminescence – cell-based, NIH3T3, dose retest, confirmation (AID 2382); assay type: functional;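 note: NIH3T3 fibroblasts with HSF1-driven luciferase reporter stressed by proteasome inhibitor MG132; luminescence from HSF1-driven luciferase expression after 8 hours of MG132 stress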
T1 sequence (P38532 whole entry): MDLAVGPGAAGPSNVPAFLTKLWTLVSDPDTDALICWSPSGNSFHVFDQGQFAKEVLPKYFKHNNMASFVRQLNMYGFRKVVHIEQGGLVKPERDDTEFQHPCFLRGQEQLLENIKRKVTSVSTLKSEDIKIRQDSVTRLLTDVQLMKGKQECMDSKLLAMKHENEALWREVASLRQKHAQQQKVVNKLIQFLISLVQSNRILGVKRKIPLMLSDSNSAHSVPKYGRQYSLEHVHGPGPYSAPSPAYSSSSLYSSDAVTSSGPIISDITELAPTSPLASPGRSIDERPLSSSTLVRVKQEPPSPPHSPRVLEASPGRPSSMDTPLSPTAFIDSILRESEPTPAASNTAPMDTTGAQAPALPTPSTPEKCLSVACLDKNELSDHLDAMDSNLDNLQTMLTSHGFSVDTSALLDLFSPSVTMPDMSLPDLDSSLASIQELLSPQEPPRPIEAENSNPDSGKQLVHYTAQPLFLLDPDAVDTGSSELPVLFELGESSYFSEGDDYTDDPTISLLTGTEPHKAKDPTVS

[3] = Luminescence-based counterscreen assay for KLF5 inhibitors: dose response cell-based high throughput screening assay to identify cytotoxic compounds using the IEC-6 intestinal epithelial cell line. [Related pubchem assays: 1700 (Primary screen.), 1834 (Confirmation screen.), 1858 (Summary AID.), 1905 (Counterscreen.)]; assay type: functional
[4] = target: Luciferin 4-monooxygenase (Photinus pyralis, UniProt P08659); test: inhibition of purified Photinus pyralis luciferase – biochemical, luminescence, dose response (AID 1891)
Luciferin 4-monooxygenase, sequence (P08659 whole entry): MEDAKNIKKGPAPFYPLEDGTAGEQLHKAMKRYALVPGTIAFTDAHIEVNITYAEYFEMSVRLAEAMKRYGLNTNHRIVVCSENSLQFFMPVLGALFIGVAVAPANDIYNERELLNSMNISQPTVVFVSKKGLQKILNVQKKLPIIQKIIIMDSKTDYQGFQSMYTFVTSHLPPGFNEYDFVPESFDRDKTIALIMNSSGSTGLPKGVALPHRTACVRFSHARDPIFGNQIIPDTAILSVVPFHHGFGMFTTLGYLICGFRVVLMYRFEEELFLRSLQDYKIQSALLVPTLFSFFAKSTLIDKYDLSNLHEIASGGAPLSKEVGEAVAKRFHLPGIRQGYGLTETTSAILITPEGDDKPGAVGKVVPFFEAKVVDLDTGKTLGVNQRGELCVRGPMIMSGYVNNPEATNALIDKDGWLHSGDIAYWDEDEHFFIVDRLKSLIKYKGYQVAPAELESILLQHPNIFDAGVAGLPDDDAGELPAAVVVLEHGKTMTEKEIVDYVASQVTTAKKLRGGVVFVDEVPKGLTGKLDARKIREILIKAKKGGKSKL

[5] = Luminescence Cell-Based Dose Confirmation HTS to Identify Inhibitors of Platelet Dense Granule Release. [Related pubchem assays: 1663 (Primary HTS), 1678 (Summary of Project)]; assay type: functional

NS3, sequence (A3EZJ3 whole entry): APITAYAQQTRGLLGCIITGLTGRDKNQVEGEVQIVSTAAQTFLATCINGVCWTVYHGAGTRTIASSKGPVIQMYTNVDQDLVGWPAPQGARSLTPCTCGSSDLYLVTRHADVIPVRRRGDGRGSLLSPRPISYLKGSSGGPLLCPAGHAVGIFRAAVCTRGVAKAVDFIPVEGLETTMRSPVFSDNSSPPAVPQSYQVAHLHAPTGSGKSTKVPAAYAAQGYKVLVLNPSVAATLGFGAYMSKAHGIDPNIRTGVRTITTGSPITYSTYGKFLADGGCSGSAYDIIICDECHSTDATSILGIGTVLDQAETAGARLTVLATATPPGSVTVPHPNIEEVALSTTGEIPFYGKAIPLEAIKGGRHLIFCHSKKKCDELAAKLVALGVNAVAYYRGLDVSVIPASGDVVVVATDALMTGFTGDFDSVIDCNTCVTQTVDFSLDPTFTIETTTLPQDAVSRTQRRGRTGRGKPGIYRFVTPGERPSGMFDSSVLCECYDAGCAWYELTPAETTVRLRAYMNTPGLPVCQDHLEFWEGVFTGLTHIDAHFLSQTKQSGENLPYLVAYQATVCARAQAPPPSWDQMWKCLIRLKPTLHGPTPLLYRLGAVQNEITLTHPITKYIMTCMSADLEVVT

IC50 (NS3): 32 µM (not active)
SMILES: NS(=O)(=O)c1ccc2nc(NC(=O)c3ccc4ncsc4c3)sc2c1

SMILES: O=C(Nc1ccc(N2CCCCC2)cc1)c1ccccn1
IC50 [1]: > 80 µM (inactive) | EC50 [2]: < 0.16 µM (active) | IC50 [3]: 13.3 µM (not active) | EC50 [4]: 1.06 µM (active) | EC50 [5]: 1.49 µM (active)
